Measurements: patent US10562857B2 (AFASCI, Inc., priority 2015, dated 2020)

biological target: T1, Cav3.2 channel (Homo sapiens, UniProt O95180); experiment: Whole-cell patch clamp of T-type Cav3.2 channel expressed in HEK293 cells; type: cell-based; conditions: HEK293; Table 1 primary screening; 1 μM
T1 construct: expressed in transfected cells; host or cells: HEK-293, tetracycline inducible expression system (Invitrogen)
Procedure: Cav3.1, Cav3.2 or Cav3.3 channels were expressed in human embryonic kidney (HEK)-293 cells using a tetracycline inducible expression system (Invitrogen). Cells were maintained in 25 cm^2 tissue culture flasks at 37° C., 5% CO2, and 100% relative humidity in D-MEM/F12 (Dulbecco's Modified Eagle Medium/Nutrient Mixture F-12; Gibco) supplemented with fetal bovine serum (FBS, 10% v/v), sodium pyruvate (0.5 mM, Gibco), penicillin-streptomycin (100 U/mL, 100 μg/mL) and Geneticin® Selective antibiotic (G418; 0.5 mg/mL). Cells were detached from the flask base using a non-enzymatic cell dissociation solution (Cellstripper, Corning), removed and re-seeded on to poly-D-lysine coated glass coverslips in 35 mm dishes. Cells in dishes were further supplemented with G418 at a final concentration of 1 mg/mL and after 24 hours, expression of Cav3.2 was induced with 1 μg/mL tetracycline. The medium for the HEK-293 cells was composed of D-MEM/F-12 (Dulbecco's Modified Eagle Medium/Nutrient Mixture F-12; Gibco, #11330-032) and 15 mM HEPES buffer, with L-glutamine and pyridoxine hydrochloride. It was supplemented with FBS (Fetal Bovine Serum), P/S (Penicillin/Streptomycin) (Gibco, #15140-122), and sodium pyruvate 100 mM (Gibco, #11360-070). At least 24 hours before the assay, expression of the alpha-2-delta-1 and beta2a subunits of the calcium channel were induced with 1 ug/mL tetracycline.
Whole-cell voltage clamp recordings were performed on rat or mouse DRG neurons within 2 days after acutely dissociation or cultured HEK293 cells expressing T-type channels (encoded by Cav3.1, Cav3.2 or Cav3.3 channels). All experiments were performed at room temperature (around 21° C.). Whole-cell currents were recorded using a MultiClamp 700B amplifier and analyzed offline with pCLAMP10.4 software (Molecular Devices, LLC, Sunnyvale Calif., USA). To record calcium currents in DRG and HEK293 cells, the external solution was composed (in mM) of 115 choline-Cl, 30 TEA-Cl, 2 CaCl2, 10 glucose and 10 HEPES (pH 7.3-7.4 adjusted with TEA-OH; osmolality verified as 295 mOsm/kg). The internal solution was composed (in mM) of 125 CsCl, 10 HEPES (acid), 10 EGTA (ethylene glycol tetraacetic acid), 1 CaCl2, 1 MgCl2, 4 MgATP and 0.3 MgGTP (pH 7.3-7.4 adjusted with CsOH; osmolality verified as 295 mOsm/kg). Since the sodium ions were absent in the external solution, tetrodoctoxin was not needed. Calcium currents were recorded at a holding potential of −100 mV and then depolarized to −30 mV for 100 ms to activate either Cav3.1, Cav3.2, or Cav3.3 expressed in HEK cells. An interpulse interval of 10 seconds allowed the channel recovery from inactivation, and achieved stable current recordings. To record sodium (Na^+) currents in DRG neurons, the external solution used the modified Krebs solution specified above. The internal solution was composed (in mM) of 120 CsF, 10 HEPES, 11 EGTA, 1 CaCl2, 1 MgCl2, 10 TEA-Cl, 4 MgATP and 0.3 MgGTP (pH 7.3-7.4 adjusted with CsOH). […] To record potassium currents in DRG neurons, the external solution used the modified Kreb's solution specified above. The internal solution was composed (in mM) of 65 KCl, 80 KF, 5 KOH, 10 EGTA, 2 MgATP (pH 7.3-7.4 adjusted with KOH). Recording electrodes were fabricated using a P-87 puller (Sutter Instrument Co., Novato, Calif., USA). The tip of resistance was 3-4 MQ in bath and the series resistance was less than 10 MΩ after whole cell configuration. All reagents were purchased from Sigma unless specified otherwise. Test compounds were usually applied via a rapid solution exchange system with 8 fine polyplastic tubings (100 μm, OD) glued in a holder in parallel and located closely to the recorded cells. […]

T1 sequence (O95180 whole entry): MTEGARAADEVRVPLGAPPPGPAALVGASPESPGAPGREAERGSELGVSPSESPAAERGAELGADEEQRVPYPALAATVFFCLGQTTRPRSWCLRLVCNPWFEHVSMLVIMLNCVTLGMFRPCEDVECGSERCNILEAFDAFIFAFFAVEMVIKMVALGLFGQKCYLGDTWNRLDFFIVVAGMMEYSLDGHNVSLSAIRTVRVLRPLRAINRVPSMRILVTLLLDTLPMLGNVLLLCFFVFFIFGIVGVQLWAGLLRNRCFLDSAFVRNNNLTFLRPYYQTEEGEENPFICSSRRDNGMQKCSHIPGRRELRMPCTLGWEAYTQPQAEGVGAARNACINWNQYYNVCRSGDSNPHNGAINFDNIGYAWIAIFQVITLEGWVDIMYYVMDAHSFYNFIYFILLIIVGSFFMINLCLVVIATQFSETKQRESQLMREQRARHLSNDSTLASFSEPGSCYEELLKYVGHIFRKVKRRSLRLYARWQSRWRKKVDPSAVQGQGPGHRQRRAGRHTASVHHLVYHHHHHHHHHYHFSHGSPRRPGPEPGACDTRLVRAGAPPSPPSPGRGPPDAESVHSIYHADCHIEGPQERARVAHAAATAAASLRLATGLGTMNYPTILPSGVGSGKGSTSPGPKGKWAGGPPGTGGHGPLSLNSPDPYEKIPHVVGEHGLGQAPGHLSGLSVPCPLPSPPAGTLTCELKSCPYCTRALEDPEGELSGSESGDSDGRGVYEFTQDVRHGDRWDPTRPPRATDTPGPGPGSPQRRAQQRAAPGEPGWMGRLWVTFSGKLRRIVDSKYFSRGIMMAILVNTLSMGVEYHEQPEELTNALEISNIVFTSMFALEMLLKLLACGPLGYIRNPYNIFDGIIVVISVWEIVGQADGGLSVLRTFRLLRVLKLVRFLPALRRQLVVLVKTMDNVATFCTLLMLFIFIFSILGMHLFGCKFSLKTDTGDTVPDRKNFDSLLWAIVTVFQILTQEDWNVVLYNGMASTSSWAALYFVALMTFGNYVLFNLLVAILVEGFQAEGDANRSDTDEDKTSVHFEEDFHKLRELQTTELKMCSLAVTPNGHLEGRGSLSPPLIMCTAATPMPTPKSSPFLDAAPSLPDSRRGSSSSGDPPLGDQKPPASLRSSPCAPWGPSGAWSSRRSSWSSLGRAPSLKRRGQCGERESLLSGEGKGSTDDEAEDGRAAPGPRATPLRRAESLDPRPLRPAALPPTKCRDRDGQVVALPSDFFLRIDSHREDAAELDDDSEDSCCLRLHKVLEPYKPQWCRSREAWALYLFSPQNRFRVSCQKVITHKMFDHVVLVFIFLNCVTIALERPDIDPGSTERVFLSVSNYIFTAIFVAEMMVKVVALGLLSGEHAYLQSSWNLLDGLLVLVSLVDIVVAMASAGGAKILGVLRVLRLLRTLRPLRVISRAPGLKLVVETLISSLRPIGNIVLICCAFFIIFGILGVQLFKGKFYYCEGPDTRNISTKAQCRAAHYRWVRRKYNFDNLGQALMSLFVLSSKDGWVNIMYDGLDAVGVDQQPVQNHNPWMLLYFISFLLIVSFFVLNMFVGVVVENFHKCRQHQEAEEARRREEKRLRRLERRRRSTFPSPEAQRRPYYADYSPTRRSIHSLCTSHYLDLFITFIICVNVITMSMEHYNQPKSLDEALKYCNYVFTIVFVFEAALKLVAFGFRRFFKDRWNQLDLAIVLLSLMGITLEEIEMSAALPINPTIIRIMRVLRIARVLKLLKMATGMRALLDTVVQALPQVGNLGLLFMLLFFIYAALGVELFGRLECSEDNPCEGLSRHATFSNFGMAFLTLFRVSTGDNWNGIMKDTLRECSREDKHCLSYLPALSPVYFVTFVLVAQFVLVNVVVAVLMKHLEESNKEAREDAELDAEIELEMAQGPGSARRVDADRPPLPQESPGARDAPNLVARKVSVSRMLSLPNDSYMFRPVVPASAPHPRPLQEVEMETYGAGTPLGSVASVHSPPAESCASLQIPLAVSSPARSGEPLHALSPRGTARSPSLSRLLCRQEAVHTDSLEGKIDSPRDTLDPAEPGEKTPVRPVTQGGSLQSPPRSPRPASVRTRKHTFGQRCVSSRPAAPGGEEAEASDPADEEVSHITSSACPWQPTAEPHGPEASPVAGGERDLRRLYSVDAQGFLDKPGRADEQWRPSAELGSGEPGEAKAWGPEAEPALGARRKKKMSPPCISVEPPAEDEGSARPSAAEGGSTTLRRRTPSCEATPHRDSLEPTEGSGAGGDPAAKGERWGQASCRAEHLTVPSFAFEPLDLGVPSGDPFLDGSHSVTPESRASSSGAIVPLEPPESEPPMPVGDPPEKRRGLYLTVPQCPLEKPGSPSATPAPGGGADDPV

| inhibition at 1 µM [%] | Structure (SMILES) |
| --- | --- |
| 67 | CC(C)(C)CCN1CCC2(CC1)CC2NC(=O)c1cccc(Cl)c1 (stereo not shown) [Example 21, 3-Chloro-N-(6-(3,3-dimethylbutyl)-6-azaspiro[2.5]octan-1-yl)benzamide] |
| 5.9 | Cc1cc(C(=O)Nc2nnc(-c3ccccc3F)o2)no1 [Example 126, N-(5-(2-Fluorophenyl)-1,3,4-oxadiazol-2-yl)-5-methylisoxazole-3-carboxamide] |
| 33 | O=C(NCC1CCN(CCC2CC2)CC1)c1ccc(Cl)s1 [Example 97, 5-Chloro-N-((1-(2-cyclopropylethyl)piperidin-4-yl)methyl)thiophene-2-carboxamide] |

| Structure (SMILES) | inhibition at 1 µM [%] |
| --- | --- |
| O=C(N[C@H]1CCC12CCN(CCc1ccccc1)CC2)c1ccccc1 [Example 112] | 24 |

same assay, conditions: Table 1; tested at at least 4 concentrations; read-out: IC50

| Structure (SMILES) | IC50 [nM] |
| --- | --- |
| CC(C)(C)CCN1CCC2(CC1)CC2NC(=O)C12CC3CC(CC(C3)C1)C2 (stereo not shown) [Example 30, N-[6-(3,3-Dimethylbutyl)-6-azaspiro[2.5]octan-1-yl]adamantane-1-carboxamide] | 90 |
| O=C(NC1CC12CCN(CCc1ccccc1)CC2)c1ccc(Cl)c(Cl)c1 (stereo not shown) [Example 8, 3,4-Dichloro-N-(6-phenethyl-6-azaspiro[2.5]octan-1-yl)benzamide] | 120 |

Other lines, results leading:

| IC50 [nM] | Structure (SMILES) |
| --- | --- |
| 70 | O=C(N[C@@H]1CC12CCN(CC(O)c1ccc(C(F)(F)F)cc1)CC2)c1cc(F)cc(Cl)c1 (single isomer, unassigned) [Example 137, 3-Chloro-5-fluoro-N-((1R)-6-(2-hydroxy-2-(4-(trifluoromethyl)phenyl)ethyl)-6-azaspiro[2.5]octan-1-yl)benzamide or 3-Chloro-5-fluoro-N-((1S)-6-(2-hydroxy-2-(4-(trifluoromethyl)phenyl)ethyl)-6-azaspiro[2.5]octan-1-yl)benzamide] |
| 120 | O=C(NC1CC12CCN(CCc1ccc(C(F)(F)F)cc1)CC2)c1cc(Cl)cc(Cl)c1 (stereo not shown) [Example 43, 3,5-Dichloro-N-(6-(4-(trifluoromethyl)phenethyl)-6-azaspiro[2.5]octan-1-yl)benzamide] |
| 90 | O=C(NC1CC12CCN(CC(O)c1ccc(F)cc1)CC2)c1cc(F)cc(Cl)c1 (single isomer, unassigned) [Example 139, 3-Chloro-5-fluoro-N-((1R)-6-(2-(4-fluorophenyl)-2-hydroxyethyl)-6-azaspiro[2.5]octan-1-yl)benzamide or 3-Chloro-5-fluoro-N-((1S)-6-(2-(4-fluorophenyl)-2-hydroxyethyl)-6-azaspiro[2.5]octan-1-yl)benzamide] |
| 190 | CC(C)(C)NC(=O)CN1CCC2(CC1)C[C@@H]2NC(=O)c1cc(Cl)cc(Cl)c1 (single isomer, unassigned) [Example 56, (S)—N-(6-(2-(tert-Butylamino)-2-oxoethyl)-6-azaspiro[2.5]octan-1-yl)-3,5-dichlorobenzamide or (R)—N-(6-(2-(tert-Butylamino)-2-oxoethyl)-6-azaspiro[2.5]octan-1-yl)-3,5-dichlorobenzamide] |
| 620 | CC(C)(C)NC(=O)CN1CCC2(CC1)C[C@@H]2NC(=O)[C@]12C[C@@]3(F)C[C@](F)(C[C@](F)(C3)C1)C2 (single isomer, unassigned) [Example 131, (3S,5S,7S)—N—((R)-6-(2-(tert-Butylamino)-2-oxoethyl)-6-azaspiro[2.5]octan-1-yl)-3,5,7-trifluoroadamantane-1-carboxamide or (3S,5S,7S)—N—((S)-6-(2-(tert-Butylamino)-2-oxoethyl)-6-azaspiro[2.5]octan-1-yl)-3,5,7-trifluoroadamantane-1-carboxamide] |
| 230 | CC(C)(C)NC(=O)CN1CCC2(CCC2NC(=O)c2cc(Cl)cc(Cl)c2)CC1 (stereo in doubt) [Example 114, (R)—N-(7-(2-(tert-Butylamino)-2-oxoethyl)-7-azaspiro[3.5]nonan-1-yl)-3,5-dichlorobenzamide] |
| 90 | CC(C)(C)CCN1CCC2(CC1)CC2NC(=O)c1cc(C(F)(F)F)ccc1Cl (stereo not shown) [Example 142, 2-Chloro-N-(6-(3,3-dimethylbutyl)-6-azaspiro[2.5]octan-1-yl)-5-(trifluoromethyl)benzamide] |
